Data on two compounds can be found in publication PMC4189421, “Induction of Oligodendrocyte Differentiation and In Vitro Myelination by Inhibition of Rho-Associated Kinase” (ASN NEURO, 2014).

One assay deals with rat mixed glial OPCs. The assay can be described thus: Myelin protein expression in rat mixed glia-derived OPCs (qPCR, MBP ELISA). The assay is classed as cell-based. The protocol:
Rat postnatal OPCs were obtained as described elsewhere according to the original procedure of [McCarthy and […] (1980)]. In brief, postnatal Day 1 rat pups were sacrificed, and cerebral cortices dissected and mechanically dissociated in medium composed of DMEM, 10% heat inactivated fetal bovine serum, and 5 μg/ml penicillin/streptomycin. Dissociated cells were plated and maintained in 75-cm^2 culture flasks for 10 days, replenishing with fresh media at Days 3 and 7. At Day 10, the flasks were shaken on a heated (37°C) shaker for 1 hr at 110 rpm to separate loosely attached microglial cells. The medium was replenished, and the cells incubated for the remainder of the day. To dislodge OPCs from the astrocyte monolayer, flasks were shaken overnight (210 rpm, 37°C). […] Cells were then plated on PDL-coated tissue culture plastic and treated with test compounds. […] The results are presented as specific mRNA expression relative to either β-actin or β-tubulin, used as internal controls as indicated. OPCs isolated from rat mixed glial cultures are known to mature readily in the absence of mitogens achieving a premyelinating OL stage as determined by the expression of the cell surface sulfatide O4, and the myelin proteins MBP and PLP among others ([Armstrong, 1998]; [Barbarese & Pfeiffer, 1981]; [[…], 1999]; [Jung-[…], Schumacher, Robel, & Baulieu, 1996]; [Konola, Tyler, Yamamura, & Lees, 1991]). They also display marked morphological changes, progressing from bipolar to multibranched cells generating membranous structures, and probably represent a later developmental stage than Nph-OPC. In rat mixed glial OPCs, we measured myelin protein expression at the RNA level by qPCR and MBP production by ELISA (MBL International, Woburn, MA).

Assay [1] relates to mouse neurosphere-derived oligodendrocyte precursor cells (Nph-OPCs). The experiment in a line: Morphology-based OPC differentiation assay (branches, outgrowth; high-content imaging). The class given is cell-based. The settings on record: mNph-OPC, 72 hr treatment, dose-response. As to the method: Neurospheres (Nph) were prepared from embryos at 14.5 days of gestation obtained from timed pregnant females of C57/Bl6 mice, as previously described ([Kornblum, Yanni, Easterday, & Seroogy, 2000]; [Pedraza, Monk, Lei, Hao, & Macklin, 2008]). In brief, after separation of meninges and cerebellum, cerebrum tissue was mechanically triturated with a 1-ml micropipette until total tissue dissociation was achieved, filtered through a 70 -µm cell strainer (Fisher Scientific, Pittsburgh, PA), and plated in 25-cm^2 plastic culture flasks (2 brains/flask). Nph proliferation media (NPM) consisted of Dulbecco’s Modified Eagle Medium (DMEM)/F12, B27 neuronal supplement (Gibco, Baltimore, MD) and 10 ng/ml […] (EGF; Sigma, St. Louis, MO). After 48 to 72 hr, floating Nphs were passaged at a 1 : 1 ratio into 75-cm^2 culture flasks. After a further 48 to 72 hr, they were passaged into 150-cm^2 flasks. Subsequent passages were performed every 3 to 4 days at a ratio of 1 : 2 or 1 : 3 in the same media, and Nph were used to generate OPCs for no more than 12 passages.
OPCs were generated by chemical disaggregation of Nph with a mouse neural progenitor dissociation kit following the manufacturer instructions (NeuroCult, StemCell Technologies, AB, Canada). The single-cell suspension was then filtered through a 40 -µm cell strainer and plated on poly-D-lysine (PDL)-coated plates. […]
To determine the effects of ROCK inhibition on OPCs, we developed a high-content image morphological analysis of OPC differentiation using mouse embryonic neural progenitor-derived OPCs (Nph-OPCs). […] Four images per well were analyzed using a neurite outgrowth module (Molecular Devices, Sunnyvale, CA). We quantified the number of branches and total outgrowth per cell (Figure 1). […] Additionally, nuclear staining by Hoechst allowed the accurate association of branches and processes to their corresponding cell bodies and permitted quantification of total cell numbers in each well.

The test system of a further assay is mouse Nph-OPCs. The assay can be described thus: Cell proliferation as number of Hoechst-labeled nuclei. The class given is cell-based. The settings on record: 1 µM; n = 3 in triplicate wells; DMSO: 522 ± 126. From the text:
To determine the effects of ROCK inhibition on OPCs, we developed a high-content image morphological analysis of OPC differentiation using mouse embryonic neural progenitor-derived OPCs (Nph-OPCs). Neural progenitors grow as nonadherent spheroids known as neurospheres (Nph; [Chojnacki & Weiss, 2008]; [Tropepe et al., 1999]), which are considered to be a mixed population of neural stem cells and progenitors of the CNS ([Rao, 1999]; [Zhou & Chiang, 1998]). These cells have been previously used in multiple published studies for the generation of high-yield, high-purity cultures of OPCs from rodents ([Calaora et al., 2001]; [[…] al., 1997]; [Pedraza et al., 2008]). After 24 hr of plating on PDL-coated tissue culture plastic, Nph-OPCs were treated as indicated with differentiation stimuli and further incubated for 72 hr. […] Four images per well were analyzed using a neurite outgrowth module (Molecular Devices, Sunnyvale, CA). We quantified the number of branches and total outgrowth per cell (Figure 1). […] Additionally, nuclear staining by Hoechst allowed the accurate association of branches and processes to their corresponding cell bodies and permitted quantification of total cell numbers in each well. […]

Assay [2] concerns MYPT1 phosphorylation in mNph-OPC. The experiment in a line: MYPT1 phosphorylation (sandwich ELISA, western blot) as ROCK target engagement. Particulars: 100 µM, 4-hr mNph-OPC treatment.
Method: Tris-glycine acrylamide-bysacrylamide gradient gel electrophoresis was performed as follows: After washing the cells with ice-cold PBS, protein lysates were made by adding 50 µl of PhosphoSafe extraction reagent (EMD Millipore) supplemented with antiprotease cocktail (cOmplete; Roche, Branford, CT) onto each 100-mm^2 cell culture plate. After detaching the cells with the help of a cell scraper and disrupting cell membranes by sonication, the protein extracts were centrifuged (10,000 g, 10 min, 4℃) and the supernatants separated. Protein content was measured by the BCA protein determination method (Biorad, Hercules, CA), and 30 µg of total protein was mixed with SDS sample buffer (Laemmli) supplemented with 1% β-mercaptoethanol. After heating the samples to 70℃ for 10 min, they were loaded onto 4% to 20% acryl-bysacrylamide gradient gels, and electrophoresis was carried out at 120 volts with constant amperage.
Resolved proteins were then transferred onto nitrocellulose membranes using the iBlot methodology and device (Life technologies). […] Secondary detection was performed using Li-Cor IRDye secondary anti-mouse and anti-rabbit antibodies, and near-infrared signal was detected by Li-Cor’s Odyssey imaging system.
We assessed MYPT1 phosphorylation in Nph-OPCs treated for 4 hr with ROCK inhibitors in a dose-response experiment and using a sandwich ELISA as a measuring method (MBL International).
The target in another assay is T1, ROCKI (Homo sapiens, UniProt Q13464).
T1 construct: purchased EMD Millipore
The settings on record: read-out: Activity, IC50 ROCKI, Table 1, ref Goodman et al., 2007, Nichols et al., 2009, heading: Activity; cited from earlier work.

In another assay the target is T2, ROCKII (Homo sapiens, UniProt O75116).
T2 construct: purchased EMD Millipore
The settings on record: read-out: Activity, IC50 ROCKII, Table 1, ref Goodman et al., 2007, Nichols et al., 2009, heading: Activity; cited from earlier work.

T2 sequence (O75116 whole entry, species assumed): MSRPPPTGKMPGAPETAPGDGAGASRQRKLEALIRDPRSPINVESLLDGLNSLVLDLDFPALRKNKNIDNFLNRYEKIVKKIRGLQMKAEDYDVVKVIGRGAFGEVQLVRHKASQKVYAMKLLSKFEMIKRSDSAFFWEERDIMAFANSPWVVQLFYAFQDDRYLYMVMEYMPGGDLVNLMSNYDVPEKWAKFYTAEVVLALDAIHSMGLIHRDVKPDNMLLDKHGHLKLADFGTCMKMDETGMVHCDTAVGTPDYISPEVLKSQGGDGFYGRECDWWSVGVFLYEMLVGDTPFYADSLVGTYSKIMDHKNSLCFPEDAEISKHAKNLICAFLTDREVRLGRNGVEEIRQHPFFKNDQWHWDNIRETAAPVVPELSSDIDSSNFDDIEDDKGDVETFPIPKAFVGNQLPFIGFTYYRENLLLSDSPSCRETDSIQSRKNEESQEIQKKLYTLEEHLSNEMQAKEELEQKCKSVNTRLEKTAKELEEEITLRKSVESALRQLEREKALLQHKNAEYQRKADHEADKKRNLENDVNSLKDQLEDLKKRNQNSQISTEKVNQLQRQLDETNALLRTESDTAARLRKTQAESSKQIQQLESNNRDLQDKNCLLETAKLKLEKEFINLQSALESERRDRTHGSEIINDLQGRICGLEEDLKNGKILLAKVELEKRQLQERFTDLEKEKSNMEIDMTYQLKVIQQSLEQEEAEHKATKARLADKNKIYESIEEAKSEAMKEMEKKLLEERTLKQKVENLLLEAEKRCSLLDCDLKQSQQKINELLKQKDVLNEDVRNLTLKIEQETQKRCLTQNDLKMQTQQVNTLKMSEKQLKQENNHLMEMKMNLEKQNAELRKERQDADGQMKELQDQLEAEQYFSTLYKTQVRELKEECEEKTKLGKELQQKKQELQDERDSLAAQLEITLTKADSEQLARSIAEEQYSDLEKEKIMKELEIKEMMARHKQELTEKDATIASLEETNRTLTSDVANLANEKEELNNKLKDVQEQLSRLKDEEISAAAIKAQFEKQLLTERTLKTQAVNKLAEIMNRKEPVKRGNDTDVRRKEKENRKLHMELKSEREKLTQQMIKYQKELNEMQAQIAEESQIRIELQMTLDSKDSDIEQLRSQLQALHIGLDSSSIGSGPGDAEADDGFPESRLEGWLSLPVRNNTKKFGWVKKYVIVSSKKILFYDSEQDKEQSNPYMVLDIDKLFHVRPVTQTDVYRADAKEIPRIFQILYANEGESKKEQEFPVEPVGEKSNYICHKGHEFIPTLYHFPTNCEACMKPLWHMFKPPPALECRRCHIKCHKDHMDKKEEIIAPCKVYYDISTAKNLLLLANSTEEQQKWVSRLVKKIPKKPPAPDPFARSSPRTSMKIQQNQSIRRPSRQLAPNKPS
T1 sequence (Q13464 whole entry, species assumed): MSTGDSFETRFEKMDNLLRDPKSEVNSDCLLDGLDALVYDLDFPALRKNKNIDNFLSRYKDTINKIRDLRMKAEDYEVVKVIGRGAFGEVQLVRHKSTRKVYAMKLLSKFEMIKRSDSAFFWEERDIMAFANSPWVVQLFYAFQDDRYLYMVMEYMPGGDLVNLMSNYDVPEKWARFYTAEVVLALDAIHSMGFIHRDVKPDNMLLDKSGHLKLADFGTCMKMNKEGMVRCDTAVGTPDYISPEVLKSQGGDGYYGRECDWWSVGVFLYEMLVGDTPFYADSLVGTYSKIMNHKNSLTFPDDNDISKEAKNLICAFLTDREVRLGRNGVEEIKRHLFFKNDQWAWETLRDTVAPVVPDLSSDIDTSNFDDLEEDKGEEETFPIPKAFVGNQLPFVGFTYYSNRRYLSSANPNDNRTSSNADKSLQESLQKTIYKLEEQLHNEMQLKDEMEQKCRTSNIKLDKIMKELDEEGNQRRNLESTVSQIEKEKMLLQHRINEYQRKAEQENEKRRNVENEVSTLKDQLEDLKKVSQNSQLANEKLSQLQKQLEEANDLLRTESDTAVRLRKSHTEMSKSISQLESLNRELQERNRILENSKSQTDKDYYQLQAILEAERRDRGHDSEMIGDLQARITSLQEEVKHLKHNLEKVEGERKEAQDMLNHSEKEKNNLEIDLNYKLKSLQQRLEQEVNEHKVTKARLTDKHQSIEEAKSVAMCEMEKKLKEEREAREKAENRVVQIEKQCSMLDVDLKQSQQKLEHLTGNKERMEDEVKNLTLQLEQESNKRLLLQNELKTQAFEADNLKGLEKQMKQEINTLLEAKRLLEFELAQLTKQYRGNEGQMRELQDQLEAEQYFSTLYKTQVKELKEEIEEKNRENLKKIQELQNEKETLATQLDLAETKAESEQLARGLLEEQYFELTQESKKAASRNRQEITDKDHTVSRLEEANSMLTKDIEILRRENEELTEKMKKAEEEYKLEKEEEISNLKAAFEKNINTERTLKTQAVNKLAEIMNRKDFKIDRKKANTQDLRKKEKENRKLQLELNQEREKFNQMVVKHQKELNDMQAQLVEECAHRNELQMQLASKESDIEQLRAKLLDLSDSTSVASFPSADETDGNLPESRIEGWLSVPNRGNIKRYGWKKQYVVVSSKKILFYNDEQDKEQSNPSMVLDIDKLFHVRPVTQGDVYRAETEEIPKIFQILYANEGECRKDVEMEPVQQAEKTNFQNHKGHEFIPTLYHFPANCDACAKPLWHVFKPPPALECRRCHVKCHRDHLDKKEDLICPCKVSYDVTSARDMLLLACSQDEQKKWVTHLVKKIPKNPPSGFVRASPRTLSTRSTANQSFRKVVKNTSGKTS

As to `O=S(=O)(c1cccc2cnccc12)N1CCCNCC1` [Fasudil], the “Expression of MBP, PLP, and MOG mRNAs (qPCR)” value in the assay with rat mixed glial OPCs (3 days maturation +4 days treatment, concentrations as low as 0.1 µM) is “significant increase”. Besides, the “MBP at the protein level (ELISA)” value in the assay on rat mixed glial OPCs (treatments at 24 hr and 72 hr after plating) is reported as “increased expression”. Also, in assay [1], the “OPC differentiation effect (processes and branches)” value was “minor differentiation effect”. Further, the “Number of Hoechst-labeled nuclei” value with mouse Nph-OPCs was determined as 598 ± 21 cells/well. Further, the “Decrease of MYPT1 phosphorylation (ELISA)” value in assay [2] came out at 60%.
As to `CC1=C(C(=O)Nc2cc3cn[nH]c3cc2F)C(c2ccc(C(F)(F)F)cc2)CC(=O)N1` (centres unmarked) [GSK 429286, 4-[4-(trifluoromethyl)phenyl]-N-(6-fluoro-1H-indazol-5-yl)-2-methyl-6-oxo-1,4,5,6-tetrahydro-3-pyridinecarboxamide], the IC50 in assay [1] (Mus musculus, Oligodendrocyte precursor cell, read-out: IC50, generation of branches in OPC differentiation assay) was 2300 nM; on ROCKI, 14 nM; at ROCKII, 48 nM.
